Assay results: patent publication US20190322697A1, “2'2'-CYCLIC DINUCLEOTIDES” (Institute of Organic Chemistry and Biochemistry, ASCR, V.V.I, priority 2018, published 2019)

How the values were obtained:
WT STING [1] = molecular target: T1, WT STING (Homo sapiens, UniProt Q86WV6, H232R); experiment: Digitonin assay using 293T wtSTING-FL reporter cells; assay type: cell-based; conditions: 293T wtSTING-FL cells, ISRE firefly luciferase reporter, digitonin buffer 30 min, then 5 hours
From the text: Two complementary oligonucleotides of the sequence […] […] […] […] […] […] […] The oligonucleotides were mixed in equal molar amounts, hybridized, and cleaved by restriction endonucleases HindIII (cat. #. R0104S, NEB, Ipswich, USA) and BglII (cat. # R0144S, NEB, Ipswich, USA). Ultimately, they were ligated into plasmid pGL4.27 (cat. # E6651, Promega, Madison, USA) linearized with the same enzymes. As result the sequence with four ISRE sites was placed upstream of the minimum promoter of firefly luciferase reporter gene.
After 5 minutes incubation at room temperature (RT), 250 μL of the mixture was added dropwise to the cells in one well. Cells were incubated 36 hours at 37° C. with 5% CO2, and then detached with 0.05% Trypsin and 0.22 g/L EDTA (both cat. # L0941, Biowest, Riverside, USA).
Transfected cells were seeded onto poly-D-lysine coated six well plates at density 50,000 cells per 1 cm^2 in DMEM medium with high glucose containing 10% heat inactivated FBS, 30 μg/mL blasticidin (cat. # ant-bl-05, InvivoGen, San Diego, USA), 0.06 mg/ml Penicillin G and 0.1 mg/ml Streptomycin Sulfate (both cat. #. L0018, Biowest, Riverside, USA). The medium was replenished every 3-4 days until visible colonies of cells resistant to blasticidin were formed.
Blasticidin resistant cells stably expressing WT STING were further transfected with pGL64.27-4×ISRE plasmid following the same procedure as described above. […] Homogeneous culture of stably double transfected cells was prepared by limiting dilution of cells in 96 well plates and wells with cells were selected that originated from a single cell.
The medium was removed next day and three fold serial dilutions of compounds in Digitonin buffer containing 50 mmol·l^−1 HEPES (cat. # H3375, Sigma Aldrich, Czech Republic) pH 7.0, 100 mmol·l^−1 KCl, 3 mmol·l^−1 MgCl2, 0.1 mmol·l^−1 DTT (cat. #D0632, Sigma Aldrich, Czech Republic), 85 mmol·l^−1 Sucrose (cat. # S7903, Sigma Aldrich, Czech Republic), 0.2% BSA (cat. # A2153, Sigma Aldrich, Czech Republic), 1 mmol·l^−1 ATP (cat. # A1852, Sigma Aldrich, Czech Republic), 0.1 mmol·l^−1 GTP (cat. # G8877, Sigma Aldrich, Czech Republic), and 10 μg/mL Digitonin A (cat. # D141, Sigma Aldrich, Czech Republic) were added to the cells. The buffer was removed after 30 minutes incubation at 37° C. with 5% CO2, the cells were washed once with 100 μl of cultivation medium, and 100 μl of medium was added to each well. The plates with cells were incubated for 5 hours at 37° C. with 5% CO2, 50 μl of the medium was removed and 30 μl of ONE-Glo™ Luciferase Assay System reagent (cat. # E6120, Promega, Madison, USA) was added to each well. Luminesce was read on Synergy H1 (Biotek, Winooski, USA).
Target sequence in this assay (Q86WV6 whole entry H232R): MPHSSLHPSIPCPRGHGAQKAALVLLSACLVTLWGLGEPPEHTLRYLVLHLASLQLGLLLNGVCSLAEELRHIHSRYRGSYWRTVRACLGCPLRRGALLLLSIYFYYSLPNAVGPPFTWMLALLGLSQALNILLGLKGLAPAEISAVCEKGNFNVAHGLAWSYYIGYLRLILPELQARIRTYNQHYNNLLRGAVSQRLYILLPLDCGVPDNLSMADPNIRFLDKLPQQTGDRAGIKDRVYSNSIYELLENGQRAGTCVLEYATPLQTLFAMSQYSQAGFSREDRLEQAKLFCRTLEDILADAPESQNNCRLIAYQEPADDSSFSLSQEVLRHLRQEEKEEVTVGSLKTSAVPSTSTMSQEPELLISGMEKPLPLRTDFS

WT STING [2] = molecular target: T1, WT STING; experiment: Differential Scanning Fluorimetry with WT STING; assay type: binding; parameters: truncated human WT STING or AQ STING (amino acid residues 140-343); 8xHis (N, cleaved yes); SUMO (N, cleaved yes); made in house; host or cells: E. coli Rosetta-gami B (DE3); conditions: thermal shift, truncated human WT STING 0.1 mg/ml, 150 μM CDN
Method: (§1) Purified PCR products were cleaved with restriction enzymes BamHI (cat. # R0136S, NEB, Ipswich, USA) and NotI (cat. # R0189S, NEB, Ipswich, USA) and cloned into the pSUMO vector linearized with the identical enzymes.
(§2) DNase I (cat. # D5025, Sigma Aldrich, Czech Republic) and RNase A (cat. # R6513, Sigma Aldrich, Czech Republic) were added (final concentration 50 μg/ml) together with MgCl2 (final concentration 5 mmol·l^−1) to the homogenate and bacteria were lysed using French Press G-M™ High-Pressure Cell Press Homogenizer (1500 psi, 3 cycles). […] The resin was poured into a chromatography column, washed with 50 ml buffer A (50 mmol·l^−1 TrisCl (pH 8.0), 800 mmol·l^−1 NaCl, 3 mmol·l^−1 3-mercaptoethanol; 10% glycerol; 20 mmol·l^−1 imidazole) and 8-His-SUMO tagged STING proteins were eluted with 15 ml buffer A containing 300 mmol·l^−1 imidazole. […] Proteins were concentrated with Amicon® Ultra-15 10 K device (cat. # UFC901008, Merck Millipore, Billerica, USA) and flash frozen in liquid N2.
(§3) 20 μL solutions of the reaction mixtures were pipetted in triplicates into 96 well optical reaction plates and thermal denaturation of samples were performed on real time PCR cycler (LightCycler® 480 Instrument II—Roche, Basel, Switzerland). The first derivative of the thermal denaturation curves was performed to calculate denaturing temperatures of STING-CDN complexes and STING apoproteins. The thermal shift for each CDN was calculated by subtracting the average denaturing temperature of STING apoprotein from the average denaturing temperature of STING CDN complex.
Target sequence in this assay (Q86WV6 140-343 H232R): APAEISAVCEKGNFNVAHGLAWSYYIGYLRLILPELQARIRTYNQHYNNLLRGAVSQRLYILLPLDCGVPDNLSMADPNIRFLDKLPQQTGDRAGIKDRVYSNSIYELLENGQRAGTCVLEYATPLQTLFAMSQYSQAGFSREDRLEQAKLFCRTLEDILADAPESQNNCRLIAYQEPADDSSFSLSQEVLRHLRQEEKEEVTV

AQ STING (G230A-R293Q) = molecular target: T2, AQ STING (G230A-R293Q) (Homo sapiens, UniProt Q86WV6, G230A/H232R/R293Q); experiment: Differential Scanning Fluorimetry with AQ STING; assay type: binding; conditions: thermal shift, truncated human AQ STING 0.1 mg/ml, 150 μM CDN
T2 construct: truncated human WT STING or AQ STING (amino acid residues 140-343); 8xHis (N, cleaved yes); SUMO (N, cleaved yes); made in house; host or cells: E. coli Rosetta-gami B (DE3)
Method: as §1, §2, §3

T2 sequence (Q86WV6 140-343 G230A/H232R/R293Q): as the sequence (Q86WV6 140-343 H232R) above, with G91A, R154Q counted along it

EC50 (WT STING [1])	DSF ΔTm WT STING (WT STING [2])	DSF ΔTm AQ STING (AQ STING (G230A-R293Q))	SMILES
30 nM	11.5 °C	19.4 °C	Nc1nc2c(ncn2[C@@H]2O[C@@H]3COP(=O)(O)O[C@@H]4[C@H](O)[C@@H](COP(=O)(O)O[C@@H]2[C@@H]3O)O[C@H]4n2cnc3c(N)ncnc32)c(=O)[nH]1 [2′2′-cGAMP, reference compound]
300 nM	2.6 °C	9.3 °C	Nc1ncnc2c1ncn2[C@@H]1O[C@@H]2COP(=O)(O)O[C@H]3[C@@H](O)[C@H](n4cnc5c(N)ncnc54)O[C@@H]3COP(=O)(O)O[C@H]2[C@H]1O [3′3′-c-di-AMP, reference compound]
5800 nM	2.6 °C	7.7 °C	Nc1nc2c(ncn2[C@@H]2O[C@@H]3COP(=O)(O)O[C@H]4[C@@H](O)[C@H](n5cnc6c(=O)[nH]c(N)nc65)O[C@@H]4COP(=O)(O)O[C@H]3[C@H]2O)c(=O)[nH]1 [3′3′-c-di-GMP, reference compound]
150 nM	9.0 °C	16.5 °C	Nc1nc2c(ncn2[C@@H]2O[C@@H]3COP(=O)(O)O[C@@H]4[C@H](O)[C@@H](COP(=O)(O)CO[C@@H]2[C@@H]3O)O[C@H]4n2cnc3c(N)ncnc32)c(=O)[nH]1 [Example 2, 2-amino-9-((1R,6R,8R,9R,15R,17R,18R,19R)-17-(6-amino-9H-purin-9-yl)-3,12,18,19-tetrahydroxy-3,12-dioxido-2,4,7,10,13,16-hexaoxa-3,12-diphosphatricyclo[13.2.1.1^6,9]nonadecan-8-yl)-1,9-dihydro-6H-purin-6-one]
50 nM	12.0 °C	19.0 °C	Nc1nc2c(ncn2[C@@H]2O[C@@H]3COP(=O)(O)COC4C(O)[C@@H](COP(=O)(O)OC2C3O)O[C@H]4n2cnc3c(N)ncnc32)c(=O)[nH]1 (stereo partly drawn) [Example 3, 2-amino-9-((1R,6R,8R,9R,15R,17R,18R,19R)-8-(6-amino-9H-purin-9-yl)-3,12,18,19-tetrahydroxy-3,12-dioxido-2,4,7,10,13,16-hexaoxa-3,12-diphosphatricyclo[13.2.1.1^6]9nonadecan-17-yl)-1,9-dihydro-6H-purin-6-one]
> 50000 nM	0.3 °C	0.3 °C	Nc1nc2c(ncn2[C@@H]2O[C@@H]3COP(=O)(O)CO[C@@H]4[C@H](O)[C@@H](COP(=O)(O)CO[C@@H]2[C@@H]3O)O[C@H]4n2cnc3c(=O)[nH]c(N)nc32)c(=O)[nH]1 [Example 4, 9,9′-((1R,7R,9R,10R,16R,18R,19R,20R)-4,13,19,20-tetrahydroxy-4,13-dioxido-2,5,8,1 1,14,17-hexaoxa-4,13-diphosphatricyclo[14.2.1.1^7,10]icosane-9,18-diyl)bis(2-amino-1,9-dihydro-6H-purin-6-one)]
> 50000 nM	−0.9 °C	0.2 °C	Nc1ncnc2c1ncn2[C@@H]1O[C@@H]2COP(=O)(O)CO[C@H]3[C@H](O)[C@@H](COP(=O)(O)O[C@@H]1[C@@H]2O)O[C@H]3n1cnc2c(N)ncnc21 [Example 5, (1R,6R,8R,9S,15R,17R,18R,19R)-8,17-bis(6-amino-9H-purin-9-yl)-3,12,18,19-tetrahydroxy-2,4,7,10,13,16-hexaoxa-3,12-diphosphatricyclo[13.2.1.1^6,9]nonadecane 3,12-dioxide]
> 50000 nM	0.0 °C	−0.3 °C	Nc1ncnc2c1ncn2[C@@H]1O[C@@H]2COP(=O)(O)CO[C@H]3[C@H](O)[C@@H](COP(=O)(O)CO[C@H]1[C@@H]2O)O[C@H]3n1cnc2c(N)ncnc21 [Example 6, (1S,7R,9R,10S,16R,18R,19R,20R)-9,18-bis(6-amino-9H-purin-9-yl)-4,13,19,20-tetrahydroxy-2,5,8,11,14,17-hexaoxa-4,13-diphosphatricyclo[14.2.1.1^7,10]icosane 4,13-dioxide]
> 50000 nM	0.0 °C	0.0 °C	Nc1ncnc2c1ncn2[C@@H]1O[C@@H]2COP(=O)(O)CO[C@@H]3[C@@H](O)[C@@H](COP(=O)(O)CO[C@@H]1[C@H]2O)O[C@H]3n1cnc2c(N)ncnc21 [Example 7, (1R,7R,9R,10R,16R,18R,19S,20S)-9,18-bis(6-amino-9H-purin-9-yl)-4,13,19,20-tetrahydroxy-2,5,8,11,14,17-hexaoxa-4,13-diphosphatricyclo[14.2.1.1^7,10]icosane 4,13-dioxide]
1100 nM	3.6 °C	11.5 °C	Nc1ncnc2c1ncn2[C@@H]1O[C@@H]2COP(=O)(O)O[C@@H]3[C@H](F)[C@@H](COP(=O)(O)CO[C@@H]1[C@@H]2F)O[C@H]3n1cnc2c(N)ncnc21 [Example 8, (1S,6R,8R,9S,15R,17R,18R,19R)-8,17-bis(6-amino-9H-purin-9-yl)-18,19-difluoro-3,12-dihydroxy-2,4,7,10,13,16-hexaoxa-3,12-diphosphatricyclo[13.2.1.1^6,9]nonadecane 3,12-dioxide]
30 nM	15.2 °C	22.9 °C	Nc1nc2c(ncn2[C@@H]2O[C@@H]3COP(=O)(O)CO[C@@H]4[C@H](F)[C@@H](COP(=O)(O)O[C@@H]2[C@@H]3F)O[C@H]4n2cnc3c(N)ncnc32)c(=O)[nH]1 [Example 9, 2-amino-9-((1S,6R,8R,9S,15R,17R,18R,19R)-8-(6-amino-9H-purin-9-yl)-18,19-difluoro-3,12-dihydroxy-3,12-dioxido-2,4,7,10,13,16-hexaoxa-3,12-diphosphatricyclo[13.2.1.1^6,9]nonadecan-17-yl)-1,9-dihydro-6H-purin-6-one]
